Measurements taken from patent US9908897B2, “Spirocyclic derivatives” (CHRONOS THERAPEUTICS LIMITED, priority 2014, dated 2018).

Tests used:
[1] = target: human dopamine transporter (DAT) (Homo sapiens (Human), UniProt Q01959); assay: Scintillation Proximity Assay (SPA) competition binding, human DAT; conditions: recombinant hDAT-CHO membranes, [3H]WIN-35,428
Description: (§1) Measure of Affinity to the Human Transporters DAT, NET and SERT
In the context of the present invention pKi values (corresponding to the antilogarithm of Ki) are used instead of Ki; pKi are only estimated to be accurate to about 0.3 log unit.
(§2) Scintillation Proximity Assay (SPA) for Human DAT, NET and SERT Binding
(§3) Chinese Hamster Ovary (CHO) cells stably expressing either human DAT (hDAT-CHO) or human NET (hNET-CHO) or human SERT (hSERT-CHO) are used for the membrane preparations for radioligand binding assays using Scintillation proximity Assay (SPA) technique. Each cell line is cultured independently in F-12K Nutrient Mixture containing 10% of Fetal Bovine Serum (FBS) supplemented with 450 μg/ml G-418. When cells are at 70-80% of confluence 3 mM Na Butyrate was added to the cell culture medium. After 24 h of incubation, the culture medium was removed and the cells detached with Versene (DAT) or by scraping (NET and SERT). Cell suspension is centrifuged at 41,000 g for 10 minutes at 4° C. The resultant pellets are re-suspended in 15 volumes of Ice-cold buffer (20 mM HEPES, 145 mM NaCl, 5 mM KCl, pH7.3), homogenized using an Ultra Turrax homogeniser and centrifuged as before. The resultant membrane pellets are re-suspended in up to 15 volume of ice-cold buffer, incubated for 20 minutes at 37-C and centrifuged as before at 41,000 g. The final membrane pellets are re-suspended into 5-10 volumes of ice-cold buffer, dispensed into 0.5 ml aliquots and stored at −80° C. until use. Protein concentration for each preparation is determined using Bio-Rad Protein Assay kit.
(§4) The affinity of the compounds of the invention to the human DAT or NET or SERT transporters is assessed by using the [^3H]WIN-35,428 or [^3H]nisoxetine or [^3H]citalopram binding assays in recombinant human DAT, NET and SERT membranes with the SPA technology. The final assay volume is 50 μL in 384 well plates.
(§5) Briefly, 0.5 μL of test compound in neat DMSO or 0.5 μL of DMSO for total binding (TB) or 0.5 μL of indatraline 1 mM (10 μM final concentration) for non specific binding (NSB) are added to the assay plate. 50 μL of the SPA mixture is added to each well, containing: 30 μg/mL or 10 μg/mL or 25 μg/mL DAT, NET, SERT membranes, respectively; 5 nM [^3H]WIN-35,428 or 5 nM [^3H]nisoxetine or 1 nM [^3H]citalopram, for DAT, NET, SERT assay, respectively; 2.5 mg/mL or 1 mg/mL or 4 mg/mL WGA-PVT SPA beads (PerkinElmer RPNQ0001, for DAT, NET, SERT assay, respectively. All components are added to Assay Buffer (20 mM HEPES pH 7.4, 145 mM NaCl, 5 mM KCl, 0.01% Pluronic F-127). 0.02% BSA was used for DAT binding only. Plates are sealed with Topseal A and centrifuged 1 min, 800 rpm. Plates are loaded into a 1450 Microbeta TriLux (Perkin-Elmer) plate reader and the radioactivity counted after at least 4 hrs or overnight incubation at room temperature. Curve fitting and IC50 estimations are performed using a four parameter model in XLfit (IDBS, Guilford, UK) for Microdoft Excel (Microsoft, Redmond, Wash.).

[2] = target: human norepinephrine transporter (NET) (Homo sapiens (Human), UniProt P23975); assay: Scintillation Proximity Assay (SPA) competition binding, human NET; conditions: recombinant hNET-CHO membranes, [3H]nisoxetine
Description: as §1
(§6) Affinity is expressed in terms of inhibition constant (Ki) of the compounds of the invention for DAT, NET and SERT, and it is typically calculated from the IC50 values obtained in competition experiments using Cheng and Prusoff equation (Cheng and Prusoff, Biochem. Pharmacol. 22:3099, 1973). In the context of the present invention pKi values (corresponding to the antilogarithm of Ki) are used instead of Ki; pKi are only estimated to be accurate to about 0.3 log unit.
as §2, §3, §4, §5

[3] = target: human serotonin transporter (SERT) (Homo sapiens (Human), UniProt P31645); assay: Scintillation Proximity Assay (SPA) competition binding, human SERT; conditions: recombinant hSERT-CHO membranes, [3H]citalopram
Description: as §1, §6, §2, §3, §4, §5

human serotonin transporter (SERT), sequence (P31645 whole entry): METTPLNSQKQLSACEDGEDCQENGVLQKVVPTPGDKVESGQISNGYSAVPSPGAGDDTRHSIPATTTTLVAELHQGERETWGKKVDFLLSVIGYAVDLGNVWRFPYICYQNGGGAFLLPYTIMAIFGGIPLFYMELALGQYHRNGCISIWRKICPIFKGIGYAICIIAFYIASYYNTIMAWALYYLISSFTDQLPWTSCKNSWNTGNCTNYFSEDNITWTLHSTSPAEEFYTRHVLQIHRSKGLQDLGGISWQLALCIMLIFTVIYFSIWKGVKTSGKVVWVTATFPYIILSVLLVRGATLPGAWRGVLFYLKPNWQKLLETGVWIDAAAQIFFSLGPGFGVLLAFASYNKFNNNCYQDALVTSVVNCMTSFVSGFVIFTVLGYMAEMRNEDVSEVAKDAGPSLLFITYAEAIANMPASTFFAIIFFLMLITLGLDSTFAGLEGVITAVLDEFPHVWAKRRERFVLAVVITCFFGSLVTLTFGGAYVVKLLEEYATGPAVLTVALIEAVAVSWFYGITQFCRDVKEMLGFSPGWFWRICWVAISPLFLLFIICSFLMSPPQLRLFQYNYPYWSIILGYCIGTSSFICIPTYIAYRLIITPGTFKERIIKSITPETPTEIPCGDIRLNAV
human norepinephrine transporter (NET), sequence (P23975 whole entry): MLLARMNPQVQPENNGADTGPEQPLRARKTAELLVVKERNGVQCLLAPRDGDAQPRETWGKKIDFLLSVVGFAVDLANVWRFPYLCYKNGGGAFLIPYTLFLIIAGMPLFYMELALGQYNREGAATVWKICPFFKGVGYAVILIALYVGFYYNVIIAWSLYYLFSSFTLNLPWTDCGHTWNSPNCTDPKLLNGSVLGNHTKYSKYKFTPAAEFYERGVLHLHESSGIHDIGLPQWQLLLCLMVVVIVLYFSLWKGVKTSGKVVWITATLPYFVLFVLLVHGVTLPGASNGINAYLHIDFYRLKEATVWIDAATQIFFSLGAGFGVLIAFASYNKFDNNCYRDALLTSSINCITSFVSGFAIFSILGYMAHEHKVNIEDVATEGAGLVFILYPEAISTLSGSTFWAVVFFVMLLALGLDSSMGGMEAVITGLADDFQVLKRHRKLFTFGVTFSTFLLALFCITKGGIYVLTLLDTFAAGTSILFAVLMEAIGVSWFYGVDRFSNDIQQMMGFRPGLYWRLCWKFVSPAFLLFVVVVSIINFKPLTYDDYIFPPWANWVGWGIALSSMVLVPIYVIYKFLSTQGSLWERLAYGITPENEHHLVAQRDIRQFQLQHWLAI
human dopamine transporter (DAT), sequence (Q01959 whole entry): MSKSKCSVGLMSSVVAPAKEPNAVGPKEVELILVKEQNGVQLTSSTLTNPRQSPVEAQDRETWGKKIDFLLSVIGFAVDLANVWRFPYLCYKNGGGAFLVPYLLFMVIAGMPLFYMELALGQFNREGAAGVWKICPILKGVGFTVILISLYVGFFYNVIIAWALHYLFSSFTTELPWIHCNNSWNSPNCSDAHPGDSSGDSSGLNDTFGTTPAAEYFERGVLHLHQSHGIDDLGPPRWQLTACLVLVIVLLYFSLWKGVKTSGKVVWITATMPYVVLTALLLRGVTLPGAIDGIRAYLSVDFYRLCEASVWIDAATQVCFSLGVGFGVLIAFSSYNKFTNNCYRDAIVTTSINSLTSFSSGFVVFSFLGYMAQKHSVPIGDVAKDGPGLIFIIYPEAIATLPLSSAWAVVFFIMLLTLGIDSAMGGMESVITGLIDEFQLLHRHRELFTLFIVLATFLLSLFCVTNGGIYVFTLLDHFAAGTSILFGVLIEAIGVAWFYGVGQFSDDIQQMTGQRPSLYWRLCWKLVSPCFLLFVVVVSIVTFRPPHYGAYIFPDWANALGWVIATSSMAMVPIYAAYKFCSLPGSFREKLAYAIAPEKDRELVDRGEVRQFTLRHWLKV

SMILES | pIC50 DAT [1] | pIC50 NET [2] | pIC50 SERT [3] | IC50 [3]
Cl.N#Cc1c(C(F)(F)F)cc(Oc2cccc(F)c2)nc1N1CCC2(CC1)CNCCO2 [Example 40, 6-(3-fluorophenoxy)-2-{1-oxa-4,9-diazaspiro[5.5]undecan-9-yl}-4-(trifluoromethyl)pyridine-3-carbonitrile hydrochloride] | 7.25 | 6.29 | 5.35 | 
Cc1c(C#N)cc(N2CCC3(CC2)CNCCO3)cc1Oc1cccc(F)c1.Cl [Example 35, 3-(3-fluorophenoxy)-2-methyl-5-{1-oxa-4,9-diazaspiro[5.5]undecan-9-yl}benzonitrile hydrochloride] | 8.16 | 6.52 | 8.45 | 
Cl.N#Cc1c(C(F)(F)F)cc(N2CCC3(CC2)CNCCO3)nc1Oc1cccc(F)c1 [Example 39, 2-(3-fluorophenoxy)-6-{1-oxa-4,9-diazaspiro[5.5]undecan-9-yl}-4-(trifluoromethyl)pyridine-3-carbonitrile hydrochloride] | 6.68 | 5.78 | 4.50 | 
O=C1CNCC2(CCN(c3nc(Oc4cccc(F)c4)cc(C(F)(F)F)n3)CC2)N1 [Example 73, 9-[4-(3-fluorophenoxy)-6-(trifluoromethyl)pyrimidin-2-yl]-1,4,9-triazaspiro[5.5]undecan-2-one] | 6.32 | 4.82 |  | > 100 µM
Cl.Fc1cccc(Oc2cc(C(F)(F)F)nc(N3CCC4(CC3)COCCN4)n2)c1 [Example 78, 9-[4-(3-fluorophenoxy)-6-(trifluoromethyl)pyrimidin-2-yl]-4-oxa-1,9-diazaspiro[5.5]undecane hydrochloride] | 7.94 | 7.32 | 5.17 | 
Fc1cccc(Oc2cc(C(F)(F)F)nc(N3CC4(CNCCO4)C3)n2)c1 [Example 102, 2-[4-(3-fluorophenoxy)-6-(trifluoromethyl)pyrimidin-2-yl]-5-oxa-2,8-diazaspiro[3.5]nonane] | 8.00 | 6.22 | 4.00 | 
Cc1cc(Oc2cc(F)cc(F)c2)nc(N2CCC3(CC2)CNCCO3)n1.Cl [Example 50, 9-[4-(3,5-difluorophenoxy)-6-methylpyrimidin-2-yl]-1-oxa-4,9-diazaspiro[5.5]undecane hydrochloride] | 8.24 | 6.96 | 5.11 | 
CN1CCCNC(=O)C12CCN(c1nc(Oc3cccc(F)c3)cc(C(F)(F)F)n1)CC2 [Example 76, 3-[4-(3-fluorophenoxy)-6-(trifluoromethyl)pyrimidin-2-yl]-7-methyl-3,7,11-triazaspiro[5.6]dodecan-12-one] | 7.28 | 4.88 |  | > 100 µM
Cc1cnc(N2CCC3(CC2)CNCCO3)nc1Oc1cccc(F)c1.Cl [Example 54, 9-[4-(3-fluorophenoxy)-5-methylpyrimidin-2-yl]-1-oxa-4,9-diazaspiro[5.5]undecane hydrochloride] | 6.96 | 5.34 | 5.00 | 
Cl.Fc1cccc(Oc2cc(C(F)(F)F)nc(N3CCOC4(CCNCC4)C3)n2)c1 [Example 67, 4-[4-(3-fluorophenoxy)-6-(trifluoromethyl)pyrimidin-2-yl]-1-oxa-4,9-diazaspiro[5.5]undecane hydrochloride] | 7.80 | 6.02 | 5.32 | 
COc1ccccc1Oc1cc(C)nc(N2CCC3(CC2)CNCCO3)n1.Cl [Example 52, 9-[4-(2-methoxyphenoxy)-6-methylpyrimidin-2-yl]-1-oxa-4,9-diazaspiro[5.5]undecane hydrochloride] | 5.96 | 5.30 |  | > 100 µM
Fc1cccc(Oc2cc(N3CCC4(CC3)CNCCO4)cc(F)c2F)c1 [Example 15, 9-[3,4-difluoro-5-(3-fluorophenoxy)phenyl]-1-oxa-4,9-diazaspiro[5.5]undecane] | 7.05 | 6.02 | 7.03 | 
Cl.Fc1cccc(Oc2cc(F)c(F)cc2N2CCC3(CC2)CNCCO3)c1 [Example 2, 9-[4,5-difluoro-2-(3-fluorophenoxy)phenyl]-1-oxa-4,9-diazaspiro[5.5]undecane hydrochloride] | 8.14 | 6.03 | 6.49 | 
c1ccc(Oc2cccc(N3CCC4(CC3)CNCCO4)c2)cc1 [Example 6, 9-(3-phenoxyphenyl)-1-oxa-4,9-diazaspiro[5.5]undecane] | 7.41 | 5.83 | 6.12 | 
CN1CCNCC12CCN(c1nc(Oc3cccc(F)c3)cc(C(F)(F)F)n1)CC2 [Example 74, 9-[4-(3-fluorophenoxy)-6-(trifluoromethyl)pyrimidin-2-yl]-1-methyl-1,4,9-triazaspiro[5.5]undecane] | 8.38 | 6.42 | 4.95 | 
COc1cc(Cc2ccccc2)nc(N2CCC3(CC2)CNCCO3)n1.Cl [Example 61, 9-(4-benzyl-6-methoxypyrimidin-2-yl)-1-oxa-4,9-diazaspiro[5.5]undecane hydrochloride] | 6.67 | 5.29 | 4.89 | 
Cc1cc(Oc2cccnc2)nc(N2CCC3(CC2)CNCCO3)n1.Cl [Example 53, 9-[4-methyl-6-(pyridin-3-yloxy)pyrimidin-2-yl]-1-oxa-4,9-diazaspiro[5.5]undecane hydrochloride] | 6.63 | 5.21 | 4.56 | 
Cl.Fc1cccc(Oc2cc(F)cc(N3CCC4(CC3)CNCCO4)c2)c1 [Example 9, 9-[3-fluoro-5-(3-fluorophenoxy)phenyl]-1-oxa-4,9-diazaspiro[5.5]undecane hydrochloride] | 8.38 | 6.91 | 7.00 | 
Fc1cccc(Oc2cc(F)c(F)cc2N2CCC3(CNCCC34OCCO4)C2)c1 (stereo not drawn) [Example 85, 8-[4,5-difluoro-2-(3-fluorophenoxy)phenyl]-1,4-dioxa-8,12-diazadispiro[4.0.4^6.4^5]tetradecane] | 6.62 | 5.81 | 6.35 | 
Fc1cccc(Oc2cc(C(F)(F)F)nc(N3CCC4(CC3)CNCCN4)n2)c1 [Example 75, 9-[4-(3-fluorophenoxy)-6-(trifluoromethyl)pyrimidin-2-yl]-1,4,9-triazaspiro[5.5]undecane] | 8.88 | 6.54 | 5.18 | 
Cl.N#Cc1cc(Oc2cccc(F)c2)nc(N2CCC3(CC2)CNCCO3)c1 [Example 38, 2-(3-fluorophenoxy)-6-{1-oxa-4,9-diazaspiro[5.5]undecan-9-yl}pyridine-4-carbonitrile hydrochloride] | 8.61 | 6.75 | 7.27 | 
Cl.Fc1cccc(Oc2cc(F)c(F)cc2N2CCC3(CCNCC34OCCO4)C2)c1 (stereo not drawn) [Example 94, 8-[4,5-difluoro-2-(3-fluorophenoxy)phenyl]-1,4-dioxa-8,13-diazadispiro[4.0.4^6.4^5]tetradecane hydrochloride] | 8.69 | 7.11 | 7.14 | 
